In US8236808B2, “Pyrazine derivatives as ENAC blockers” (Novartis AG, priority 2008, dated 2012) one finds IC50 data, which are given here for eleven compounds.

pIC50: −log10 of the molar value.

In general, pIC50 refers to the IC50 on a negative log10 scale, so that one unit is a factor of ten. Read a low pIC50 as a high IC50.

The target in this assay is T1, epithelial sodium channel (ENaC) (Homo sapiens, UniProt P37088+P51168+P51170).
T1 construct: host or cells: primary human bronchial epithelial cells (HBECs), differentiated at the air-liquid interface
T1 sequence (P37088 1-669): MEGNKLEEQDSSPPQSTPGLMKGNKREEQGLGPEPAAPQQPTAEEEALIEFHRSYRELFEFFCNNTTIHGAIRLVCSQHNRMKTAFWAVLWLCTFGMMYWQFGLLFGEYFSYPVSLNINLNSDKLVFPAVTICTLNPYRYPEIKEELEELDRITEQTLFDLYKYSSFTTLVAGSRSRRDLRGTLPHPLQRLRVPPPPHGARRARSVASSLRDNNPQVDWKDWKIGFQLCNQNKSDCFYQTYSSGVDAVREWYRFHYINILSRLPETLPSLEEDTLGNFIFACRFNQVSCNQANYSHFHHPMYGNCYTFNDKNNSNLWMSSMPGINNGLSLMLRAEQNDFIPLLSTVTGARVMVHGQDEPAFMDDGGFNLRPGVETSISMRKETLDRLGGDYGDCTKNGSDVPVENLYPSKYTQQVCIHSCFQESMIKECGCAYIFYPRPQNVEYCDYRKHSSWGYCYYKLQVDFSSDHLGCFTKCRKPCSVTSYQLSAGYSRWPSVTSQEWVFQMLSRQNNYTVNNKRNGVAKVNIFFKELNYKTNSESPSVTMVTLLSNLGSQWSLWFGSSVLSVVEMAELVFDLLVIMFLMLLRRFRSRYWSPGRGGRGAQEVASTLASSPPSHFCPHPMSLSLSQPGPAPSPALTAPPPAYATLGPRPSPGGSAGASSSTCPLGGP
T1 sequence (P51168 1-640): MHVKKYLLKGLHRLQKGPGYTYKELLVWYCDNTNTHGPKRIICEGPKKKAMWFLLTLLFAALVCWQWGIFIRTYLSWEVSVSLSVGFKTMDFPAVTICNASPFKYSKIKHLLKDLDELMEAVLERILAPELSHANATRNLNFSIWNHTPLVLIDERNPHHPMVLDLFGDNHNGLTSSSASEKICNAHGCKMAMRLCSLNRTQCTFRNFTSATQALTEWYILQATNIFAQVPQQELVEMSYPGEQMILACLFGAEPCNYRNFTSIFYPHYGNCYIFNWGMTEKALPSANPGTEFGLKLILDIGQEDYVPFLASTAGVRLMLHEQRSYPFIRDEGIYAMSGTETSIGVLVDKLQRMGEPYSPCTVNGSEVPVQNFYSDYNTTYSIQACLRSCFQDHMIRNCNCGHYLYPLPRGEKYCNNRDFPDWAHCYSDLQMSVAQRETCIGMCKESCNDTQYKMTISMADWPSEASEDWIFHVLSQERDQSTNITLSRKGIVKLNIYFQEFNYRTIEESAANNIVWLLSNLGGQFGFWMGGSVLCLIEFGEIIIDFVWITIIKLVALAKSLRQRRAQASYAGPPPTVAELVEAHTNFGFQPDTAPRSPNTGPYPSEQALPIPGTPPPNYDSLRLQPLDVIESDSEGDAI
T1 sequence (P51170 1-649): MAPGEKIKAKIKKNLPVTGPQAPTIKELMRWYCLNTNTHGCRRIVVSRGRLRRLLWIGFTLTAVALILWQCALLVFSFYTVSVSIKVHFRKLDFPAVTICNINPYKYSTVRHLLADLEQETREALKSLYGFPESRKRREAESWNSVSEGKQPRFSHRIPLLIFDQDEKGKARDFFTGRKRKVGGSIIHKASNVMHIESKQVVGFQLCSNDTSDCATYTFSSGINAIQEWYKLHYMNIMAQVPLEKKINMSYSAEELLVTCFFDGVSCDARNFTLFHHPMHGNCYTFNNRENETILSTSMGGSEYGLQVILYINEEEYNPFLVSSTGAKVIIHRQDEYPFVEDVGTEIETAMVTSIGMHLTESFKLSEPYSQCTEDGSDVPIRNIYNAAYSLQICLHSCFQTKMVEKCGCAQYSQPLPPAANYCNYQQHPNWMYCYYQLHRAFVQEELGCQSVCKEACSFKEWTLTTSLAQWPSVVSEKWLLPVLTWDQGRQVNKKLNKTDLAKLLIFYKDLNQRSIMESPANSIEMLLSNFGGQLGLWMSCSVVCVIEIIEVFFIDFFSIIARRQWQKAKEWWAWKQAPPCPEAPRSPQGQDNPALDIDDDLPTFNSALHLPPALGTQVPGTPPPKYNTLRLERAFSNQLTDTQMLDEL
The assay is described as follows: Short circuit current (ISC) measurements in human bronchial epithelial cells, inhibition of amiloride-sensitive ISC. It counts as cell-based. The following applies: inhibition of the amiloride-sensitive ISC; HBECs cultured at air-liquid interface, Ussing chamber, compound added to apical chamber. The method, then: Compounds of formula (I), hereinafter referred to alternatively as “agents of the invention”, are useful as pharmaceuticals. In particular, the compounds have good ENaC blocker activity and may be tested in the following assays.
Human Bronchial Epithelial cells (HBECs) (Cambrex) were cultured under air-liquid interface conditions to provide a well differentiated mucociliary phenotype.
HBECs were cultured using a modification of the method described by Gray and colleagues (Gray et al., 1996). Cells were seeded in plastic T-162 flasks and were grown in bronchial epithelial cell growth medium (BEGM; Cambrex) supplemented with bovine pituitary extract (52 μg/mL), hydrocortisone (0.5 μg/mL), human recombinant epidermal growth factor (0.5 ng/mL), epinephrine (0.5 μg/mL), transferrin (10 μg/mL), insulin (5 μg/mL), retinoic acid (0.1 μg/mL), triiodothyronine ([…]), gentamycin (50 μg/mL) and amphotericin B (50 ng/mL). Medium was changed every 48 hours until cells were 90% confluent. Cells were then passaged and seeded (8.25×10^5 cells/insert) on polycarbonate Snapwell inserts (Costar) in differentiation media containing 50% DMEM in BEGM with the same supplements as above but without triiodothyronine and a final retinoic acid concentration of 50 nM (all-trans retinoic acid). Cells were maintained submerged for the first 7 days in culture, after which time they were exposed to an apical air interface for the remainder of the culture period. At this time, media was changed to DMEM:F12 media containing 2% v/v Ultroser G for the remainder of culture. Amphotericin B was removed from all media 3 feeds prior to use in the Ussing Chambers. Cells were used between days 7 and 21 after establishment of the apical-air interface. At all stages of culture, cells were maintained at 37° C. in 5% CO2 in an air incubator.
Snapwell inserts were mounted in Vertical Diffusion Chambers (Costar) and were bathed with continuously gassed Ringer solution (5% CO2 in O2; pH 7.4) maintained at 37° C. containing (in mM): 120 NaCl, 25 NaHCO3, 3.3 KH2PO4, 0.8 K2HPO4, 1.2 CaCl2, 1.2 MgCl2, and 10 glucose. The solution osmolarity was between 280 and 300 mOsmol/kg H2O for all physiological salt solutions used. Cells were voltage clamped to 0 mV (model EVC4000; WPI). RT was measured by applying a 1- or 2-mV pulse at 30-s intervals and calculating RT by Ohm's law. Data were recorded using a PowerLab workstation (ADInstruments).
Test compounds were prepared as a 10 mM stock solution in DMSO (95%). Serial 3-fold dilutions were freshly prepared in an appropriate vehicle (distilled H2O or Ringers solution). The initial concentration was added to the apical chamber as a 1000× concentrate in 5 μL, resulting in a final 1× concentration the 5 mL volume of the Ussing chamber. Subsequent additions of compound were added in a 3.3 μL volume of the 1000× serially diluted stock solution. At the completion of the concentration-response experiment, amiloride (10 μM) was added into the apical chamber to enable the total amiloride-sensitive current to be measured. An amiloride control IC50 was established at the start of each experiment.
Results are expressed as the mean % inhibition of the amiloride-sensitive ISC. Concentration-response curves were plotted and IC50 values generated using GraphPad Prism 3.02. Cell inserts were typically run in duplicate and the IC50 calculated on the mean % inhibition data.
The compound `CCOc1ccc(NC(=O)NCCCC[N+](C)(CCCc2ccc(OC)cc2)CCNC(=O)c2nc(Cl)c(N)nc2N)cc1Cl` (centres unmarked) [Example 26, {4-[3-(3-Chloro-4-ethoxy-phenyl)-ureido]-butyl}-{2-[(3,5-diamino-6-chloro-pyrazine-2-carbonyl)-amino]-ethyl}-[3-(4-methoxy-phenyl)-propyl]-methyl-ammonium bromide] gave a negative-log IC50 (pIC50) of 7.92.

Regarding `COc1ccc(CCC[N+](C)(C)CCNC(=O)c2nc(Cl)c(N)nc2N)cc1` [Example 27, {2-[(3,5-diamino-6-chloro-pyrazine-2-carbonyl)-amino]-ethyl}-[3-(4-methoxy-phenyl)-propyl]-dimethyl-ammonium bromide], the negative logarithm of the IC50 (pIC50) is 6.66.

For the compound `C[N+](C)(CCCc1ccc(OCCCc2ccc(OC[C@@H](O)CO)cc2)cc1)CCNC(=O)c1nc(Cl)c(N)nc1N` [Example 29, {2-[(3,5-Diamino-6-chloro-pyrazine-2-carbonyl)-amino]-ethyl}-[3-(4-{3-[4-((S)-2,3-dihydroxy-propoxy)-phenyl]-propoxy}-phenyl)-propyl]-dimethyl-ammonium bromide], the pIC50 was 7.60.

The compound `C[N+](C)(CCNC(=O)CCc1ccccc1)CCNC(=O)c1nc(Cl)c(N)nc1N` [Example 30, {2-[(3,5-Diamino-6-chloro-pyrazine-2-carbonyl)-amino]-ethyl}-dimethyl-2-[(3-phenyl-propionylamino)-ethyl]-ammonium hexafluorophosphate] had a negative logarithm of the IC50 (pIC50) of 6.85.

`C[N+](C)(CCNC(=O)CCc1ccc(Cl)cc1)CCNC(=O)c1nc(Cl)c(N)nc1N` [Example 33, {2-[3-(4-Chloro-phenyl)-propionylamino]-ethyl}-{2-[(3,5-diamino-6-chloro-pyrazine-2-carbonyl)-amino]-ethyl}-dimethyl-ammonium hexafluorophosphate] had a pIC50 of 6.82.

In the case of `COc1ccc2c(c1)CCCC2CC(=O)NCC[N+](C)(C)CCNC(=O)c1nc(Cl)c(N)nc1N` (centres unmarked) [Example 35, {2-[(3,5-Diamino-6-chloro-pyrazine-2-carbonyl)-amino]ethyl}-{2-[2-(6-methoxy-1,2,3,4-tetrahydro-naphthalen-1-yl)-acetylamino]-ethyl}-dimethyl-ammonium hexafluorophosphate], the pIC50 is 6.39.

In the case of `C[N+](C)(CCNC(=O)CCc1ccc(F)cc1)CCNC(=O)c1nc(Cl)c(N)nc1N` [Example 38, {2-[(3,5-Diamino-6-chloro-pyrazine-2-carbonyl)-amino]-ethyl}-{2-[3-(4-fluoro-phenyl)-propionylamino]-ethyl}-dimethyl-ammonium hexafluorophosphate], the negative logarithm of the IC50 (pIC50) is 6.09.

Turning to `C[N+](C)(CCCNC(=O)Cc1ccc(OCc2ccccc2)cc1)CCNC(=O)c1nc(Cl)c(N)nc1N` [Example 50, {3-[2-(4-Benzyloxy-phenyl)-acetylamino]-propyl}-{2-[(3,5-diamino-6-chloro-pyrazine-2-carbonyl)-amino]-ethyl}-dimethyl-ammonium bromide], the pIC50 is 6.62.

In the case of `C[N+](C)(CCCNC(=O)Cc1ccc(Cl)cc1)CCNC(=O)c1nc(Cl)c(N)nc1N` [Example 51, {3-[2-(4-Chloro-phenyl)-acetylamino]-propyl}-{2-[(3,5-diamino-6-chloro-pyrazine-2-carbonyl)-amino]-ethyl}-dimethyl-ammonium hexafluorophosphate], the pIC50 was 6.38.

`C[N+](C)(CCCNC(=O)Cc1ccccc1)CCNC(=O)c1nc(Cl)c(N)nc1N` [Example 53, {2-[(3,5-Diamino-6-chloro-pyrazine-2-carbonyl)-amino]-ethyl}-dimethyl-(3-phenylacetylamino-propyl)-ammonium hexafluorophosphate] gave a pIC50 of 6.22.

On to `C[N+](C)(CCCCNC(=O)Cc1ccc(OCc2ccccc2)cc1)CCNC(=O)c1nc(Cl)c(N)nc1N` [Example 63, {4-[2-(4-Benzyloxy-phenyl)-acetylamino]-butyl}-{2-[(3,5-diamino-6-chloro-pyrazine-2-carbonyl)-amino]-ethyl}-dimethyl-ammonium bromide], for which the pIC50 is 7.37.
